Measurements: patent US7163944B2, “Cyclic diamine compound and pharmaceutical containing the same” (Kowa Co., Ltd., priority 2004, dated 2007)

What was measured:
ACAT = target: T1, ACAT (Mus musculus, UniProt Q61263); experiment: Cholesterol ester accumulation inhibitory action (ACAT inhibitory activity) in J774 cells; format: cell-based; settings: 25-hydroxycholesterol 10 μg/ml, 18 hours incubation, concentration inhibiting 50% of CE production, N=4
T1 construct: endogenous in cells; host or cells: J774 cells
T1 sequence (Q61263 1-540): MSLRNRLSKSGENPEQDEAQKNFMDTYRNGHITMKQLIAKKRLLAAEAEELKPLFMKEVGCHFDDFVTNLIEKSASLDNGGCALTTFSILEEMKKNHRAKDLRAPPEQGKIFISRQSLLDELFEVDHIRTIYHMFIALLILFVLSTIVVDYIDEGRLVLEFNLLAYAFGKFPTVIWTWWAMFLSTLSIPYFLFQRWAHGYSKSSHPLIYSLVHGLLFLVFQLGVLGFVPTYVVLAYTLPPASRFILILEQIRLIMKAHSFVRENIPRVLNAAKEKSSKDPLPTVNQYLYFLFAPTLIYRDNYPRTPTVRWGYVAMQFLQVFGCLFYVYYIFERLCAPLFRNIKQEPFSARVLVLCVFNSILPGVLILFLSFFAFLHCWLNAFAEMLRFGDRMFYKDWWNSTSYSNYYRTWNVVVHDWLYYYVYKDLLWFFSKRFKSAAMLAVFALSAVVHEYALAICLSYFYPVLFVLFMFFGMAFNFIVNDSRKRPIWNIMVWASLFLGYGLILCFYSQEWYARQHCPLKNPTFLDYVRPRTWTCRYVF
Procedure: Test 1: Cholesterol Ester Accumulation Inhibitory Action (ACAT Inhibitory Activity) in J774 Cells.
J774 cells (2×10^5 cells/well) were seeded on a 24-well plate and incubated for 24 hours in 500 μL of DMEM (10% FBS). After replacement with a new medium, 25-hydroxycholesterol (10 μg/ml) and a test compound (final concentration: 0, 10^−9 to 10^−5 mol/L) were added, followed by incubation for 18 hours. After washing with 0.9% NaCl, the lipid was extracted with 250 μL of hexane-isopropanol (3:2) and then extracted with 250 μL of hexane-isopropanol (3:2) again. After the extracts were combined and distilled, the amount of cholesterol ester (CE) thus obtained was determined by the fluorescent enzyme assay. The cells from which the lipid was extracted were subjected to protein assay (micro BCA assay) and the amount of CE per mg of protein was determined. From a CE production ratio of the test compound to the control, IC50 (concentration of the compound inhibiting 50% of CE production) was calculated at N=4.

[1] = Metabolic stability in human liver microsomes; format: in vitro ADME
Procedure: Test 2: Test on Metabolic Stability in Human Liver Microsomes
In accordance with the below-described Table 2, an NRS (NADPH regenerating system) solution and 16% human serum albumin were added to a 0.1 mol/L phosphate buffer (containing 3.3 mM magnesium chloride) (pH 7.4), followed by the addition of a solution of a test compound (100 μM) in acetonitrile (0.01 mL). After preincubation in a warm bath of 37° C. for 5 minutes, human liver microsomes (POOLED HUMAN LIVER MICROSOMES, Lot. No. 20, product of GENETEST) were added and a reaction was effected for 30 minutes in a warm bath of 37° C. A 0.25 mL portion of the reaction mixture was collected 0 and 30 minutes after the initiation of the reaction, followed by extraction. The amount of the test compound was measured by HPLC. A remaining ratio of the unchanged compound after 30 minutes was calculated based on the following equation: (peak area after 30 minutes/peak area at 0 minute)×100.
To each sample were added 1.0 mL of a glycine buffer (pH 10), 0.1 mL of an internal standard substance and 5.0 mL of tert-butyl methyl ether, followed by shaking for 10 minutes and centrifugal separation at 2500 rpm for 10 minutes to collect the organic layer.

[2] = system: lipid-loaded F1B hamster model; experiment: Aorta lipid deposition suppression test, lipid-loaded F1B hamster model; format: in vivo; settings: Bio F1B male hamsters, fat-rich diet 10 weeks, 1 mg/kg orally twice a day, aorta Oil red O area vs control group
Procedure: Test 3: Aorta Lipid Deposition Suppression Test
In accordance with the method of Nicolosi, et al., a test using an animal model of arteriosclerosis, that is, a lipid-loaded F1B hamster model was made and a lipid deposition area in the aortic arch was measured to investigate the effects of the test compound for suppressing lipid deposition [refer to Nicolosi R J, et al., Atherosclerosis 137, 77–85(1988)].
Bio F1B male hamsters purchased from Charles River Japan, Inc. were divided at random into three groups (a compound (1) administered group, a comparative compound (B) administered group and a medicament non-administered group (control group)), each group consisting of 6 hamsters. […] After 10 weeks, an area of the lipid deposited in the aorta was measured by an image analyser. […]
An 18-G injection needle was inserted into the cardiac apex, followed by perfusion with physiological saline (120 mmHg) for about 5 minutes, and then, with a 4% paraformaldehyde solution (120 mmHg) for about 5 minutes. […] The image was scanned into a computer and the area of the portion stained with Oil red 0 and the area of the lumen surface were measured using an image analyser software (“Win Roof”, product of Mitani Shoji). In each case of each group, a ratio of the area of the portion stained with Oil Red O to the lumen surface area was calculated and it was designated as an aorta lipid deposition ratio. […]

O=C(CN1CCN(CCSc2nc3cccc(C(F)(F)F)c3o2)CC1)Nc1c(C(F)(F)F)cc(O)cc1C(F)(F)F [compound (1), 2-[4-[2-(7-trifluoromethylbenzoxazol-2-ylthio)ethyl]piperazin-1-yl]-N-[4-hydroxy-2,6-bis(trifluoromethyl)phenyl]acetamide]
IC50 (ACAT): 49 nM | remaining ratio of the unchanged compound after 30 minutes ([1]; pooled human liver microsomes, 37° C., 30 minutes, NADPH regenerating system, human serum albumin, HPLC): 38% | metabolic resistance in human liver microsomes relative to compound (B) ([1]; times higher than compound (B)): about 40 times | melting point: 176 to 177 °C | lipid deposition suppression ratio [2]: 43%
